pKi: −log10 of the molar value. Counter-ions that a name gives are not always drawn.

Here are results for 18 compounds from US8691815B2, “Substituted oxindole derivatives, drugs containing said derivatives and the use thereof” (AbbVie Deutschland GmbH & Co. KG, priority 2005, dated 2014).

The assay deals with T1, human vasopressin V1b receptor (Homo sapiens, UniProt P47901).
T1 construct: expressed in transfected cells; host or cells: CHO-K1 (cell line hV1b-3H2_CHO), membrane preparation
T1 sequence (P47901 1-424): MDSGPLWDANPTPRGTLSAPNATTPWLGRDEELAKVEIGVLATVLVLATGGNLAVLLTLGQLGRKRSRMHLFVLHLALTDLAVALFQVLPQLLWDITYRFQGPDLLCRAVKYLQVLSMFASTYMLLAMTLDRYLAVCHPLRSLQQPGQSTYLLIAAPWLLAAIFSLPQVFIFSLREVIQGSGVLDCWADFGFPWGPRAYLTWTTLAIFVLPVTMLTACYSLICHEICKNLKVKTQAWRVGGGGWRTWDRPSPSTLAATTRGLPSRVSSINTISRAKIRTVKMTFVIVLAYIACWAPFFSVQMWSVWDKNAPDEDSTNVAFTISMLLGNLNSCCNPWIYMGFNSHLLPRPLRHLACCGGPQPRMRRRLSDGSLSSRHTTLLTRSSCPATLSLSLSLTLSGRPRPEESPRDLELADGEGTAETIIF
The experiment in a line: Vasopressin V1b receptor binding assay. Conditions: membranes from CHO-K1 cells with stably expressed human V1b receptors, displacement of 1.5 nM 3H-AVP. As for the experimental part:
Vasopressin V1b Receptor Binding Assay:
The test substances were dissolved in a concentration of 10^−2 M in DMSO (dimethyl sulfoxide) and further diluted to 5×10^−4 M to 5×10^−9 M in DMSO. This series of DMSO predilutions was diluted 1:10 with assay buffer. The substance concentration was again diluted 1:5 in the assay mixture (2% DMSO in the mixture).
The membrane pellet was again homogenized and centrifuged as described and then taken up in 50 mM Tris-HCl, pH 7.4, homogenized and stored in aliquots frozen in liquid nitrogen at −190° C.
The incubation buffer was: 50 mM Tris, 10 mM MgCl2, 0.1% BSA, pH 7.4.
The nonspecific binding was determined with 1 uM AVP (Bachem # H1780). All determinations were carried out as triplicate determinations. After incubation (60 minutes at room temperature), the free radioligand was removed by vacuum filtration (Skatron cell harvester 7000) through Whatman GF/B glass fiber filter mats, and the filters were transferred into scintillation vials. The liquid scintillation measurement took place in a Tricarb model 2000 or 2200CA instrument (Packard). Conversion of the measured cpm into dpm was carried out with the aid of a standard quench series.
The binding parameters were calculated by nonlinear regression in SAS.
For the compound `COc1ccc(S(=O)(=O)N2C(=O)C(c3cc(CN(C)C)ccc3OC)(N3CCC[C@H]3C(=O)N(C)C)c3cc(Cl)ccc32)c(OC)c1` (stereo partly drawn) [Example 24, (S)-1-[5-Chloro-1-(2,4-dimethoxybenzenesulfonyl)-3-(5-dimethylaminomethyl-2-methoxyphenyl)-2-oxo-2,3-dihydro-1H-indol-3-yl]pyrrolidine-2-dimethylcarboxamide, trifluoroacetic acid salt], the negative-log Ki (pKi) is above 9.00.

Consider `COc1ccc(S(=O)(=O)N2C(=O)C(c3cc(CN4CCCC4)ccc3OC)(N3CCC[C@H]3C(=O)N(C)C)c3cc(Cl)ccc32)c(OC)c1` (stereo partly drawn) [Example 25, (S)-1-[5-Chloro-1-(2,4-dimethoxybenzenesulfonyl)-3-(2-methoxy-5-pyrrolidin-1-yl-methylphenyl)-2-oxo-2,3-dihydro-1H-indol-3-yl]pyrrolidine-2-dimethylcarboxamide, trifluoroacetic acid salt], for which the pKi is above 9.00.

`COc1ccc(S(=O)(=O)N2C(=O)C(c3cc(CN4CCCCC4)ccc3OC)(N3CCC[C@H]3C(=O)N(C)C)c3cc(Cl)ccc32)c(OC)c1` (stereo partly drawn) [Example 26, (S)-1-[5-Chloro-1-(2,4-dimethoxybenzenesulfonyl)-3-(2-methoxy-5-piperidin-1-yl-methylphenyl)-2-oxo-2,3-dihydro-1H-indol-3-yl]pyrrolidin-2-dimethylcarboxamide trifluoroacetic acid salt]: the negative-log Ki (pKi) was above 9.00.

For the compound `COc1ccc(S(=O)(=O)N2C(=O)C(c3cc(CN4CCN(C)CC4)ccc3OC)(N3CCC[C@H]3C(=O)N(C)C)c3cc(Cl)ccc32)c(OC)c1` (stereo partly drawn) [Example 27, (S)-1-{5-Chloro-1-(2,4-dimethoxybenzenesulfonyl)-3-[2-methoxy-5-(4-methyl-piperazin-1-ylmethyl)phenyl]-2-oxo-2,3-dihydro-1H-indol-3-yl}pyrrolidine-2-dimethylcarboxamide, trifluoroacetic acid salt], the negative-log Ki (pKi) is above 9.00.

Compound `COc1ccc(S(=O)(=O)N2C(=O)C(c3cc(CN4CCOCC4)ccc3OC)(N3CCC[C@H]3C(=O)N(C)C)c3cc(Cl)ccc32)c(OC)c1` (stereo partly drawn) [Example 28, (S)-1-[5-Chloro-1-(2,4-dimethoxybenzenesulfonyl)-3-(2-methoxy-5-morpholin-4-yl-methylphenyl)-2-oxo-2,3-dihydro-1H-indol-3-yl]pyrrolidine-2-dimethylcarboxamide, trifluoroacetic acid salt] showed a pKi of 8.00 to 9.00.

For `COc1ccc(S(=O)(=O)N2C(=O)C(c3cc(CN(C)CCN(C)C)ccc3OC)(N3CCC[C@H]3C(=O)N(C)C)c3cc(Cl)ccc32)c(OC)c1` (stereo partly drawn) [Example 29, (S)-1-[5-Chloro-1-(2,4-dimethoxybenzenesulfonyl)-3-(5-{[(2-dimethylaminoethyl)-methylamino]methyl}-2-methoxyphenyl)-2-oxo-2,3-dihydro-1H-indol-3-yl]pyrrolidine-2-dimethylcarboxamide, trifluoroacetic acid salt], the pKi is above 9.00.

In the case of `COc1ccc(S(=O)(=O)N2C(=O)C(c3cc(CN(C)CCCN(C)C)ccc3OC)(N3CCC[C@H]3C(=O)N(C)C)c3cc(Cl)ccc32)c(OC)c1` (stereo partly drawn) [Example 30, (S)-1-[5-Chloro-1-(2,4-dimethoxybenzenesulfonyl)-3-(5-{[(3-dimethylaminopropyl)-methylamino]methyl}-2-methoxyphenyl)-2-oxo-2,3-dihydro-1H-indol-3-yl]pyrrolidine-2-dimethylcarboxamide, trifluoroacetic acid salt], the pKi was above 9.00.

In turn, `COCCN(C)Cc1ccc(C2(N3CCC[C@H]3C(=O)N(C)C)C(=O)N(S(=O)(=O)c3ccc(OC)cc3OC)c3ccc(Cl)cc32)c(OC)c1` (stereo partly drawn) [Example 31, (S)-1-[5-Chloro-1-(2,4-dimethoxybenzenesulfonyl)-3-(2-methoxy-4-{[(2-methoxy-ethyl)methylamino]methyl}phenyl)-2-oxo-2,3-dihydro-1H-indol-3-yl]pyrrolidine-2-dimethylcarboxamide] showed a negative-log Ki (pKi) of 8.00 to 9.00.

For the compound `COCCN(C)Cc1ccc(OC)c(C2(N3CCC[C@H]3C(=O)N(C)C)C(=O)N(S(=O)(=O)c3ccc(OC)cc3)c3ccc(Cl)cc32)c1` (stereo partly drawn) [Example 32, (S)-1-[5-Chloro-1-(4-methoxybenzenesulfonyl)-3-(2-methoxy-5-{[(2-methoxyethyl)-methylamino]methyl}phenyl)-2-oxo-2,3-dihydro-1H-indol-3-yl]-pyrrolidine-2-dimethyl-carboxamide, trifluoroacetic acid salt], the negative logarithm of the Ki (pKi) is above 9.00.

With `COCCN(C)Cc1ccc(OC)c(C2(N3CCC[C@H]3C(=O)N(C)C)C(=O)N(S(=O)(=O)c3ccc(OC)cc3OC)c3ccc(Cl)cc32)c1` (stereo partly drawn) [Example 33, (S)-1-[5-Chloro-1-(2,4-dimethoxybenzenesulfonyl)-3-(2-methoxy-5-{[(2-methoxy-ethyl)methylamino]methyl}phenyl)-2-oxo-2,3-dihydro-1H-indol-3-yl]pyrrolidine-2-dimethylcarboxamide, trifluoroacetic acid salt], the negative logarithm of the Ki (pKi) was above 9.00.

On to `COc1ccc(S(=O)(=O)N2C(=O)C(c3ccc(CN4CCN(C)CC4)cc3OC)(N3CCC[C@H]3C(=O)N(C)C)c3cc(Cl)ccc32)cc1` (stereo partly drawn) [Example 69, (S)-1-{5-Chloro-1-(4-methoxybenzenesulfonyl)-3-[2-methoxy-4-(4-methylpiperazin-1-ylmethyl)phenyl]-2-oxo-2,3-dihydro-1H-indol-3-yl}pyrrolidine-2-dimethylcarboxamide, trifluoroacetic acid salt], for which the negative logarithm of the Ki (pKi) was above 9.00.

Consider `COc1ccc(S(=O)(=O)N2C(=O)C(c3ccc(CN(C)C)cc3OC)(N3CCC[C@H]3C(=O)N(C)C)c3cc(Cl)ccc32)cc1` (stereo partly drawn) [Example 70, (S)-1-[5-Chloro-3-(4-dimethylaminomethyl-2-methoxyphenyl)-1-(4-methoxy-benzenesulfonyl)-2-oxo-2,3-dihydro-1H-indol-3-yl]pyrrolidine-2-dimethylcarboxamide, trifluoroacetic acid salt], for which the pKi was above 9.00.

The compound `COc1ccc(S(=O)(=O)N2C(=O)C(c3ccc(CN4CCOCC4)cc3OC)(N3CCC[C@H]3C(=O)N(C)C)c3cc(Cl)ccc32)cc1` (stereo partly drawn) [Example 71, (S)-1-[5-Chloro-1-(4-methoxybenzenesulfonyl)-3-(2-methoxy-4-morpholin-4-yl-methylphenyl)-2-oxo-2,3-dihydro-1H-indol-3-yl]pyrrolidine-2-dimethylcarboxamide, trifluoroacetic acid salt] showed a pKi above 9.00.

Take `COc1cc(CN(C)C)ccc1C1(N2CCC[C@H]2C(=O)N(C)C)C(=O)N(S(=O)(=O)c2ccc(C#N)cc2)c2ccc(Cl)cc21` (stereo partly drawn) [Example 72, (S)-1-[5-Chloro-1-(4-cyanobenzenesulfonyl)-3-(4-dimethylaminomethyl-2-methoxy-phenyl)-2-oxo-2,3-dihydro-1H-indol-3-yl]pyrrolidine-2-dimethylcarboxamide, trifluoroacetic acid salt]: the negative logarithm of the Ki (pKi) is 8.00 to 9.00.

Turning to `COc1cc(CN(C)C)ccc1C1(N2CCC[C@H]2C(=O)N(C)C)C(=O)N(S(=O)(=O)c2ccc(F)cc2)c2ccc(Cl)cc21` (stereo partly drawn) [Example 73, (S)-1-[5-Chloro-3-(4-dimethylaminomethyl-2-methoxyphenyl)-1-(4-fluorobenzene-sulfonyl)-2-oxo-2,3-dihydro-1H-indol-3-yl]pyrrolidine-2-dimethylcarboxamide, trifluoroacetic acid salt], the pKi was 8.00 to 9.00.

`COc1cc(CN2CCN(C)CC2)ccc1C1(N2CCC[C@H]2C(=O)N(C)C)C(=O)N(S(=O)(=O)c2ccc(F)cc2)c2ccc(Cl)cc21` (stereo partly drawn) [Example 74, (S)-1-{5-Chloro-1-(4-fluorobenzenesulfonyl)-3-[2-methoxy-4-(4-methylpiperazin-1-yl-methyl)phenyl]-2-oxo-2,3-dihydro-1H-indol-3-yl}pyrrolidine-2-dimethylcarboxamide, trifluoroacetic acid salt] had a negative-log Ki (pKi) above 9.00.

`COc1cc(CN2CCOCC2)ccc1C1(N2CCC[C@H]2C(=O)N(C)C)C(=O)N(S(=O)(=O)c2ccc(F)cc2)c2ccc(Cl)cc21` (stereo partly drawn) [Example 77, (S)-1-[5-Chloro-1-(4-fluorobenzenesulfonyl)-3-(2-methoxy-4-morpholin-4-ylmethyl-phenyl)-2-oxo-2,3-dihydro-1H-indol-3-yl]pyrrolidine-2-dimethylcarboxamide, trifluoroacetic acid salt] showed a pKi of 7.00 to 8.00.

Turning to `COc1cc(CN2CCNCC2)ccc1C1(N2CCC[C@H]2C(=O)N(C)C)C(=O)N(S(=O)(=O)c2ccc(F)cc2)c2ccc(Cl)cc21` (stereo partly drawn) [Example 78, (S)-1-[5-Chloro-1-(4-fluorobenzenesulfonyl)-3-(2-methoxy-4-piperazin-1-ylmethyl-phenyl)-2-oxo-2,3-dihydro-1H-indol-3-yl]pyrrolidine-2-dimethylcarboxamide, trifluoroacetic acid salt], the pKi was above 9.00.

By pKi is commonly meant the Ki on a negative log10 scale, so that one unit is a factor of ten. Read a high pKi as a small Ki.
